{
  "source": "patent US20040063580A1",
  "about": "“Bicyclic triazolone derivatives and a herbicides containing the same” (priority 2000, published 2004)",
  "key": {"[1]": {"test_system": "tall morningglory", "assay": "Herbicidal effects against weeds (post emergence), tall morningglory", "format": "in vivo", "conditions": "post emergence spray, evaluated two weeks after treatment", "experimental": "(§1) Herbicidal Effects Against Weeds (Post Emergence)\n(§2) After filling 300 g field soil in jiffypot™ having diameter of 10 cm, the soil was steam sterilized. Seeds of velvetleaf, redroot pigweed, tall morningglory and corn onto the surface of the soil were scattered, and then covered with the soil to a thickness of 0.5 cm for the weed, 1 cm for the crop. When the weed and the crop reached the designated growth stage, they were treated with the compound to be tested.\n(§3) Preparation of the Test Solution and the Method of Treatment\n(§4) The compound to be tested was dissolved in acetone which contain Tween 20™ and diluted with deionized water to prepare the test solution for 10 g/a and 1 g/a use. The test solution was sprayed on the pots in a device for spraying using spraygun.\n(§5) Method of Indicating the Effect and Phytotoxicity\n(§6) The effect of the compound tested on the weeds and phytotoxicity on the crops were evaluated two weeks after treatment with the compound as 6 grades from 0 to 5 shown in the Table 9 and 10.\n(§7) In the Table 11 and 12, the herbicidal effects were indicated by the following evaluation index."}, "[2]": {"test_system": "velvetleaf", "assay": "Herbicidal effects against weeds (post emergence), velvetleaf", "format": "in vivo", "conditions": "post emergence spray, evaluated two weeks after treatment", "experimental": "as §1, §2, §3, §4, §5, §6, §7"}, "[3]": {"test_system": "corn", "assay": "Post emergence test, phytotoxicity on the crop corn", "format": "in vivo", "conditions": "post emergence spray, evaluated two weeks after treatment", "experimental": "as §1, §2, §3, §4, §5, §6\nThe phytotoxicity was indicated by the following evaluation index."}, "[4]": {"test_system": "redroot pigweed", "assay": "Herbicidal effects against weeds (post emergence), redroot pigweed", "format": "in vivo", "conditions": "post emergence spray, evaluated two weeks after treatment", "experimental": "as §1, §2, §3, §4, §5, §6, §7"}},
  "note": "Values joined by “and” are separate entries in the source; they are usually repeats but may differ in a detail not shown here. Equal entries are not always repeated.",
  "data": [
    {"compound": "CCOC(=O)CSc1cc(-n2nc3ccc(Cl)cn3c2=O)c(F)cc1C#N", "note": "[A-19]", "values": [
      {"measurement": "Evaluation index Tall morning glory", "setting": "[1]; 10 g/a", "result": "5 (maximum *all dead) 100)"},
      {"measurement": "Evaluation index Velvet leaf", "setting": "[2]; 10 g/a", "result": "5 (maximum *all dead) 100)"}
    ]},
    {"compound": "CCOC(=O)COc1cc(-n2nc3ccc(Cl)cn3c2=O)c(F)cc1Cl", "note": "[A-27]", "values": [
      {"measurement": "Evaluation index Tall morning glory", "setting": "[1]; 10 g/a", "result": "5 (maximum *all dead) 100)"},
      {"measurement": "Evaluation index Velvet leaf", "setting": "[2]; 10 g/a", "result": "5 (maximum *all dead) 100)"}
    ]},
    {"compound": "CCS(=O)(=O)Nc1cc(-n2nc3c(Cl)cccn3c2=O)c(F)cc1C#N", "note": "[A-48]", "values": [
      {"measurement": "Evaluation index Tall morning glory", "setting": "[1]; 10 g/a", "result": "5 (maximum *all dead) 100)"},
      {"measurement": "Evaluation index Velvet leaf", "setting": "[2]; 10 g/a", "result": "5 (maximum *all dead) 100)"}
    ]},
    {"compound": "CCS(=O)(=O)Nc1cc(-n2nc3ccc(C)cn3c2=O)c(F)cc1C#N", "note": "[A-50]", "values": [
      {"measurement": "Evaluation index Tall morning glory", "setting": "[1]; 10 g/a", "result": "5 (maximum *all dead) 100)"},
      {"measurement": "Evaluation index Velvet leaf", "setting": "[2]; 10 g/a", "result": "5 (maximum *all dead) 100)"}
    ]},
    {"compound": "CCS(=O)(=O)Nc1cc(-n2nc3ccc(Cl)cn3c2=O)c(F)cc1C#N", "note": "[Compound No. A-3, 6-Chloro-2-(4-cyano-5-ethanesulfonylamino-2-fluorophenyl)-1,2,4-triazolo[4,3-a]pyridin-3(2H)-one]", "values": [
      {"measurement": "Evaluation index Tall morning glory", "setting": "[1]; 1 g/a", "result": "4 (maximum 87.6 to 99.9)"},
      {"measurement": "melting point", "result": "220 to 222", "unit": "°C"},
      {"measurement": "Evaluation index Corn (phytotoxicity)", "setting": "[3]; 1 g/a", "result": "1 (small 0.1 to 12.5)"},
      {"measurement": "Evaluation index Velvet leaf", "setting": "[2]; 1 g/a", "result": "5 (maximum *all dead) 100)"}
    ]},
    {"compound": "C#CCOc1cc(-n2nc3ccc(Cl)cn3c2=O)c(F)cc1Cl", "note": "[Compound No. A-25, 6-Chloro-2-(4-chloro-2-fluoro-5-propargyloxyphenyl)-1,2,4-triazolo[4,3-a]pyridin-3(2H)-one]", "values": [
      {"measurement": "Evaluation index Tall morning glory", "setting": "[1]; 1 g/a", "result": "5 (maximum *all dead) 100)"},
      {"measurement": "Evaluation index Tall morning glory", "setting": "[1]; 10 g/a", "result": "5 (maximum *all dead) 100)"},
      {"measurement": "melting point", "result": "145 to 148", "unit": "°C"},
      {"measurement": "Evaluation index Corn (phytotoxicity)", "setting": "[3]; 1 g/a", "result": "0 (no effect 0)"},
      {"measurement": "Evaluation index Corn (phytotoxicity)", "setting": "[3]; 10 g/a", "result": "1 (small 0.1 to 12.5)"},
      {"measurement": "Evaluation index Velvet leaf", "setting": "[2]; 1 g/a", "result": "5 (maximum *all dead) 100)"},
      {"measurement": "Evaluation index Velvet leaf", "setting": "[2]; 10 g/a", "result": "5 (maximum *all dead) 100)"}
    ]},
    {"compound": "CCS(=O)(=O)Nc1cc(-n2nc3ccc(Cl)cn3c2=O)c(F)cc1Cl", "note": "[Compound No. A-35, 6-Chloro-2-(4-chloro-5-ethanesulfonylamino-2-fluorophenyl)-1,2,4-triazolo[4,3-a]pyridin-3(2H)-one]", "values": [
      {"measurement": "Evaluation index Redroot pigweed", "setting": "[4]; 10 g/a", "result": "5 (maximum *all dead) 100)"},
      {"measurement": "melting point", "result": "121 to 123 °C and 120 to 122 °C"},
      {"measurement": "Evaluation index Corn (phytotoxicity)", "setting": "[3]; 10 g/a", "result": "1 (small 0.1 to 12.5)"},
      {"measurement": "Evaluation index Velvet leaf", "setting": "[2]; 10 g/a", "result": "5 (maximum *all dead) 100)"}
    ]},
    {"compound": "CCS(=O)(=O)Nc1cc(-n2nc3n(c2=O)CCCS3)c(F)cc1C#N", "note": "[Compound No. E-1, 5,6-Dihydro-2-(4-cyano-5-ethylsulfonylamino-2-fluorophenyl)-7H-[1,2,4]triazolo[3,4-b][1,3]thiazin-3(2H)-one]", "values": [
      {"measurement": "Evaluation index Redroot pigweed", "setting": "[4]; 1 g/a", "result": "5 (maximum *all dead) 100)"},
      {"measurement": "Evaluation index Redroot pigweed", "setting": "[4]; 10 g/a", "result": "5 (maximum *all dead) 100)"},
      {"measurement": "melting point", "result": "193 to 195", "unit": "°C"},
      {"measurement": "Evaluation index Corn (phytotoxicity)", "setting": "[3]; 1 g/a", "result": "1 (small 0.1 to 12.5)"},
      {"measurement": "Evaluation index Corn (phytotoxicity)", "setting": "[3]; 10 g/a", "result": "1 (small 0.1 to 12.5)"},
      {"measurement": "Evaluation index Velvet leaf", "setting": "[2]; 1 g/a", "result": "5 (maximum *all dead) 100)"},
      {"measurement": "Evaluation index Velvet leaf", "setting": "[2]; 10 g/a", "result": "5 (maximum *all dead) 100)"}
    ]},
    {"compound": "C#CCOc1cc(-n2nc3n(c2=O)CCCN3)c(F)cc1Cl", "note": "[Compound No. F-1, 5,6,7,8-Tetrahydro-2-(4-chloro-2-fluoro-5-propargyloxyphenyl)-[1,2,4]triazolo[4,3-a]pyrimidin-3(2H)-one]", "values": [
      {"measurement": "Evaluation index Redroot pigweed", "setting": "[4]; 1 g/a", "result": "5 (maximum *all dead) 100)"},
      {"measurement": "Evaluation index Redroot pigweed", "setting": "[4]; 10 g/a", "result": "5 (maximum *all dead) 100)"},
      {"measurement": "melting point", "result": "172 to 174", "unit": "°C"},
      {"measurement": "Evaluation index Corn (phytotoxicity)", "setting": "[3]; 1 g/a", "result": "3 (big 25.1 to 50.0)"},
      {"measurement": "Evaluation index Corn (phytotoxicity)", "setting": "[3]; 10 g/a", "result": "3 (big 25.1 to 50.0)"},
      {"measurement": "Evaluation index Velvet leaf", "setting": "[2]; 1 g/a", "result": "4 (maximum 87.6 to 99.9)"},
      {"measurement": "Evaluation index Velvet leaf", "setting": "[2]; 10 g/a", "result": "5 (maximum *all dead) 100)"}
    ]}
  ]
}
